Reference: patent publication US8796328B2, “TRPV1 antagonists” (AbbVie Inc., priority 2012, dated 2014)
Like-named read-outs stand apart in the source and are kept apart here.

Columns and labels:
rats = assay: Sodium iodoacetate-induced knee joint osteoarthritic pain model (hind limb grip force); type: in vivo; conditions: rat, 30 mg/kg single acute oral dose, assessed 1 hour following administration, 20 days after iodoacetate
Protocol: Unilateral knee joint osteoarthritis was induced in the rats by a single intra-articular (i.a.) injection of sodium iodoacetate (3 mg in 0.05 mL sterile isotonic saline) into the right knee joint cavity under light isoflurane anesthesia using a 26G needle. […] Pain behavioral assessment of hind limb grip force was conducted by recording the maximum compressive force exerted on the hind limb strain gauge setup, in a commercially available grip force measurement system (Columbus Instruments, Columbus, Ohio). The grip force data was converted to a maximum hindlimb cumulative compressive force (CFmax) (gram force)/kg body weight for each animal. The analgesic effects of test compounds were determined 20 days following the i.a. injection of sodium iodoacetate. The vehicle control group for each compound being tested was assigned 0% whereas the age matched naïve group was assigned as being 100% (normal). The % effect for each dose group was then expressed as % return to normalcy compared to the naïve group. Test compounds were administered orally in 10% ethanol/20% Tween 80/70% polyethylene glycol-400 vehicle at a volume of 2 mL/kg. The assessment of the analgesic effects of test compounds was made 1 hour following oral administration. […]

[1] = biological target: human TRPV1 receptor (hTRPV1) (Homo sapiens (Human), UniProt Q8NER1); assay: Capsaicin activation assay (FLIPR intracellular Ca2+); type: cell-based
Summary of the method: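 Recombinant HEK293 cells stably expressing hTRPV1, Calcium-4 dye loaded 90–120 min at room temperature, were preincubated with compound (12-point, one-third-log) for 3 min before capsaicin challenge. Peak FLIPR fluorescence minus baseline was normalised to capsaicin control response; IC50 from four-parameter logistic fit.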

Sequence of human TRPV1 receptor (hTRPV1) (Q8NER1 whole entry): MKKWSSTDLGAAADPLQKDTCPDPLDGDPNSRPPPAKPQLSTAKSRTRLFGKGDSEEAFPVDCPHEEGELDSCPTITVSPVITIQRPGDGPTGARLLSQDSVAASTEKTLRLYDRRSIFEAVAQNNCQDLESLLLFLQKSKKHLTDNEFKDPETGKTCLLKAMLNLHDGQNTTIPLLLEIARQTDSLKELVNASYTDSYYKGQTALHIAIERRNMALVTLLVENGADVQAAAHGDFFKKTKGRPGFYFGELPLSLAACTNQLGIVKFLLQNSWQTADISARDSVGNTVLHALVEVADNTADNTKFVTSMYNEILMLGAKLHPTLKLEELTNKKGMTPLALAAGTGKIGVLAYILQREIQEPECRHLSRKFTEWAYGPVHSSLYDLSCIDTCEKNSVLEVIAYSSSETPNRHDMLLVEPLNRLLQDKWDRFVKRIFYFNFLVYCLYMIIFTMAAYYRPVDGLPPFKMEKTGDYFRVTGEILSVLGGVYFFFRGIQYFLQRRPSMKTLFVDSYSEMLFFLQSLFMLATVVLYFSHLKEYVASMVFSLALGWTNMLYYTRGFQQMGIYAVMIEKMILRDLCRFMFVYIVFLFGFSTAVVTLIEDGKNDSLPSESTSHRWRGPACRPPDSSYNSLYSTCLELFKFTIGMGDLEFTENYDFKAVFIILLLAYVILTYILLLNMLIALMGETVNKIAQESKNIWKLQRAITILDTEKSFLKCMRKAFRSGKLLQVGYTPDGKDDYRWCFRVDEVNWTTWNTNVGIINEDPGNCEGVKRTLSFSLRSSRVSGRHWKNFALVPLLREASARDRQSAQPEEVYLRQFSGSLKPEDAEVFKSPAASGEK

Structure (SMILES): CS(=O)(=O)Nc1ccc(CNC(=O)N[C@@H]2CC(CF)(CF)Oc3cc(C(F)(F)F)ccc32)cc1F [Example 10, N-{4-[({[(4R)-2,2-bis(fluoromethyl)-7-(trifluoromethyl)-3,4-dihydro-2H-chromen-4-yl]carbamoyl}amino)methyl]-2-fluorophenyl}methanesulfonamide]
- % effect (% return to normalcy) in iodoacetate-induced osteoarthritic pain model (rats): 62%
- IC50 ([1]; Table 2, capsaicin-induced intracellular Ca2+ increase, read-out: human TRPV1 capsaicin IC50): 54 nM
- IC50 ([1]; inhibition of capsaicin-induced intracellular Ca2+ increase, compounds added 3 minutes prior to capsaicin, read-out: hTRPV1 cap. IC50): 54 nM
